The results in this text go back to patent US10472341B2, “Bicyclic tetrahydrothiazepine derivatives useful for the treatment of neoplastic and/or infectious diseases” (APEIRON BIOLOGICS AG, priority 2015, dated 2019).

Where two headings read alike, the source gives them in different places.

Assay [1] has as its system aCD3/aCD28-stimulated human CD4+-T-cells. The assay is described as follows: IL-2 production and activation markers in aCD3/aCD28 stimulated isolated human CD4+-T-cells. Type of assay: cell-based. Conditions: IL-2 production at 3 μM compound. Put shortly: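 CD4+ T cells isolated from buffy-coat PBMCs by microbeads were plated in Xvivo medium (1.5*10^5 cells/well) and stimulated with anti-CD3/28 mAbs plus compound. IL-2 measured by ELISA in supernatants at 24 h or 48 h; CD25 and proliferation by flow cytometry, CD69 at 24 h. Activity classes based on IL-2 at 3 μM compound.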

Assay [2] has as its system aCD3/aCD28-stimulated human PBMCs. The assay is described as follows: Cytokine production in aCD3/aCD28 stimulated human PBMCs. In kind it is cell-based. As to conditions: PBMC, 18 h. In short, it runs like this:
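Ficoll-isolated human PBMCs at 1e6 cells/mL in X-Vivo15, stimulated with soluble anti-CD3/CD28 (OKT3 and 28.2, 1 μg/mL each) plus compound for 18 h at 37° C. Supernatant cytokines quantified by MSD or HTRF.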

The mark [3] stands for this setting: enhancement of IFN-γ production, read-out: Activity Class IFN-γ.
Where [4] appears, read: enhancement of IL-2 production, read-out: Activity Class IL-2.

As to `Cl.N[C@H]1CSc2ccc(C(=O)NCC3CCCOC3)cc2N(Cc2ccc(Cl)cc2)C1=O` (stereo partly drawn) [Example 28, (3R)-3-amino-5-[(4-chlorophenyl)methyl]-N-(oxan-3-ylmethyl)-4-oxo-2,3,4,5-tetrahydro-1,5-benzothiazepine-7-carboxamide hydrochloride], the “Activity Class CD4+” value in assay [1] is “C (IL-2 production at 3 μM compound concentration between 2-fold increase as compared to mean IL-2 production of stimulated cells in the absence of compounds and <2 ng/mL)”. Moreover, the figures for the EC50 in assay [2] (setting [3]) and in assay [2] (setting [4]) were 1580 to 5010 nM and above 5010 nM, respectively.

For `CCCCNC(=O)c1cc2c(cc1F)SC[C@H](N)C(=O)N2Cc1ccc(Cl)cc1F.Cl` [Example 54, (3R)-3-amino-N-butyl-5-[(4-chloro-2-fluorophenyl)methyl]-8-fluoro-4-oxo-2,3,4,5-tetrahydro-1,5-benzothiazepine-7-carboxamide hydrochloride], the “Activity Class CD4+” value in assay [1] is given as “B (IL-2 production at 3 μM compound concentration between 2-10 ng/mL)”. Besides, the EC50 in assay [2] (setting [3]) and in assay [2] (setting [4]) was 1580 to 5010 nM in each case.

`Cl.N[C@H]1CSc2ccc(C(=O)NCCCC(F)(F)F)cc2N(Cc2ccc(OC(F)(F)F)cc2)C1=O` [Example 29, (3R)-3-amino-4-oxo-N-(4,4,4-trifluorobutyl)-5-{[4-(trifluoromethoxy)phenyl]methyl}-2,3,4,5-tetrahydro-1,5-benzothiazepine-7-carboxamide hydrochloride]: the “Activity Class CD4+” value in assay [1] is reported as “B (IL-2 production at 3 μM compound concentration between 2-10 ng/mL)”. The EC50 in assay [2] (setting [3]) and in assay [2] (setting [4]) was below 1580 nM in each case.

Take `Cl.N[C@H]1CSc2cc(F)c(C(=O)NCC3CCOCC3)cc2N(Cc2ccc(Cl)c(F)c2)C1=O` [Example 56, (3R)-3-amino-5-[(4-chloro-3-fluorophenyl)methyl]-8-fluoro-N-(oxan-4-ylmethyl)-4-oxo-2,3,4,5-tetrahydro-1,5-benzothiazepine-7-carboxamide hydrochloride]: the “Activity Class CD4+” value in assay [1] is “C (IL-2 production at 3 μM compound concentration between 2-fold increase as compared to mean IL-2 production of stimulated cells in the absence of compounds and <2 ng/mL)”. Moreover, the EC50 in assay [2] (setting [3]) was below 1580 nM; in assay [2] (setting [4]) it was 1580 to 5010 nM.

With `CC(C)NC(=O)c1ccc2c(c1)N(Cc1ccc(Cl)c(F)c1)C(=O)[C@@H](N)CS2(=O)=O.Cl` [Example 89, (3R)-3-amino-5-[(4-chloro-3-fluorophenyl)methyl]-1,1,4-trioxo-N-(propan-2-yl)-2,3,4,5-tetrahydro-1λ^6,5-benzothiazepine-7-carboxamide hydrochloride], the “Activity Class CD4+” value in assay [1] was “C (IL-2 production at 3 μM compound concentration between 2-fold increase as compared to mean IL-2 production of stimulated cells in the absence of compounds and <2 ng/mL)”. Also, the EC50 in assay [2] (setting [3]) was 1580 to 5010 nM; in assay [2] (setting [4]), above 5010 nM.

Turning to `Cl.N[C@H]1CS(=O)(=O)c2cc(F)c(C(=O)NCC3CC3)cc2N(Cc2ccc(Cl)cc2)C1=O` [Example 110, (3R)-3-amino-5-[(4-chlorophenyl)methyl]-N-(cyclopropylmethyl)-8-fluoro-1,1,4-trioxo-2,3,4,5-tetrahydro-1λ^6,5-benzothiazepine-7-carboxamide hydrochloride], in assay [1], the “Activity Class CD4+” value was “A (IL-2 production at 3 μM compound concentration >10 ng/mL)”. In addition, the EC50 in assay [2] (setting [3]) and in assay [2] (setting [4]) was below 1580 nM throughout.

Turning to `Cl.N[C@H]1CSc2ccc(C(=O)NCC3CCOCC3)cc2N(Cc2ccc(Cl)cc2)C1=O` [Example 23, (3R)-3-amino-5-[(4-chlorophenyl)methyl]-N-(oxan-4-ylmethyl)-4-oxo-2,3,4,5-tetrahydro-1,5-benzothiazepine-7-carboxamide hydrochloride], the “Activity Class CD4+” value in assay [1] is listed as “B (IL-2 production at 3 μM compound concentration between 2-10 ng/mL)”. In addition, the EC50 in assay [2] (setting [3]) is 1580 to 5010 nM; in assay [2] (setting [4]), above 5010 nM.

Consider `Cl.N[C@H]1CSc2ccc(C(=O)NC3CCC(F)(F)CC3)cc2N(Cc2ccc(Cl)cc2)C1=O` [Example 33, (3R)-3-amino-5-[(4-chlorophenyl)methyl]-N-(4,4-difluorocyclohexyl)-4-oxo-2,3,4,5-tetrahydro-1,5-benzothiazepine-7-carboxamide hydrochloride], for which, in assay [1], the “Activity Class CD4+” value is listed as “B (IL-2 production at 3 μM compound concentration between 2-10 ng/mL)”. Further, the EC50 in assay [2] (setting [3]) is below 1580 nM; in assay [2] (setting [4]), 1580 to 5010 nM.

In the case of `Cl.N[C@H]1CS(=O)(=O)c2cc(F)c(C(=O)NC3CC3)cc2N(Cc2ccc(Cl)cc2)C1=O` [Example 85, (3R)-3-amino-5-[(4-chlorophenyl)methyl]-N-cyclopropyl-8-fluoro-1,1,4-trioxo-2,3,4,5-tetrahydro-1λ^6,5-benzothiazepine-7-carboxamide hydrochloride], the “Activity Class CD4+” value in assay [1] is “C (IL-2 production at 3 μM compound concentration between 2-fold increase as compared to mean IL-2 production of stimulated cells in the absence of compounds and <2 ng/mL)”. In addition, the EC50 in assay [2] (setting [3]) and in assay [2] (setting [4]) was 1580 to 5010 nM in each case.

In the case of `Cl.N[C@H]1CSc2ccc(C(=O)NCCCC(F)(F)F)cc2N(Cc2ccc(C(F)(F)F)nc2)C1=O` [Example 36, (3R)-3-amino-4-oxo-N-(4,4,4-trifluorobutyl)-5-{[6-(trifluoromethyl)pyridin-3-yl]methyl}-2,3,4,5-tetrahydro-1,5-benzothiazepine-7-carboxamide hydrochloride], the “Activity Class CD4+” value in assay [1] was “C (IL-2 production at 3 μM compound concentration between 2-fold increase as compared to mean IL-2 production of stimulated cells in the absence of compounds and <2 ng/mL)”. The EC50 in assay [2] (setting [3]) was below 1580 nM; in assay [2] (setting [4]) it was above 5010 nM.

For `CCCCNC(=O)c1ccc2c(c1)N(Cc1ccc(OC(F)(F)F)cc1)C(=O)[C@@H](N)CS2.Cl` [Example 3, (3R)-3-amino-N-butyl-4-oxo-5-{[4-(trifluoromethoxy)phenyl]methyl}-2,3,4,5-tetrahydro-1,5-benzothiazepine-7-carboxamide hydrochloride], in assay [1], the “Activity Class CD4+” value was “B (IL-2 production at 3 μM compound concentration between 2-10 ng/mL)”. Moreover, the EC50 in assay [2] (setting [3]) and in assay [2] (setting [4]) was 1580 to 5010 nM each time.

Regarding `COc1ccc([C@H](C)NC(=O)c2ccc3c(c2)N(Cc2ccc(Cl)cc2)C(=O)[C@@H](N)CS3)cc1` [Example 35, (3R)-3-amino-5-[(4-chlorophenyl)methyl]-N-[(1S)-1-(4-methoxyphenyl)ethyl]-4-oxo-2,3,4,5-tetrahydro-1,5-benzothiazepine-7-carboxamide], the “Activity Class CD4+” value in assay [1] was “C (IL-2 production at 3 μM compound concentration between 2-fold increase as compared to mean IL-2 production of stimulated cells in the absence of compounds and <2 ng/mL)”. In addition, the EC50 in assay [2] (setting [3]) and in assay [2] (setting [4]) was above 5010 nM throughout.

In the case of `CCCCNC(=O)c1ccc2c(c1)N(Cc1cccc(OC(F)(F)F)c1)C(=O)[C@@H](N)CS2.Cl` [Example 9, (3R)-3-amino-N-butyl-4-oxo-5-{[3-(trifluoromethoxy)phenyl]methyl}-2,3,4,5-tetrahydro-1,5-benzothiazepine-7-carboxamide hydrochloride], the “Activity Class CD4+” value in assay [1] was “C (IL-2 production at 3 μM compound concentration between 2-fold increase as compared to mean IL-2 production of stimulated cells in the absence of compounds and <2 ng/mL)”. For the same compound, the EC50 in assay [2] (setting [3]) is 1580 to 5010 nM; in assay [2] (setting [4]) it was above 5010 nM.

On to `CC1(NC(=O)c2cc3c(cc2F)S(=O)(=O)C[C@H](N)C(=O)N3Cc2ccc(Cl)cc2)CCC1.Cl` [Example 100, (3R)-3-amino-5-[(4-chlorophenyl)methyl]-8-fluoro-N-(1-methylcyclobutyl)-1,1,4-trioxo-2,3,4,5-tetrahydro-1λ^6,5-benzothiazepine-7-carboxamide hydrochloride], for which the “Activity Class CD4+” value in assay [1] is recorded as “A (IL-2 production at 3 μM compound concentration >10 ng/mL)”. Besides, the EC50 in assay [2] (setting [3]) and in assay [2] (setting [4]) was below 1580 nM each time.

Turning to `Cl.N[C@H]1CSc2cc(F)c(C(=O)NCC3CCOCC3)cc2N(Cc2ccc(Cl)cc2)C1=O` [Example 42, (3R)-3-amino-5-[(4-chlorophenyl)methyl]-8-fluoro-N-(oxan-4-ylmethyl)-4-oxo-2,3,4,5-tetrahydro-1,5-benzothiazepine-7-carboxamide hydrochloride], the “Activity Class CD4+” value in assay [1] was “C (IL-2 production at 3 μM compound concentration between 2-fold increase as compared to mean IL-2 production of stimulated cells in the absence of compounds and <2 ng/mL)”. Moreover, the values for the EC50 in assay [2] (setting [3]) and in assay [2] (setting [4]) were 1580 to 5010 nM and above 5010 nM, respectively.

As for `Cl.N[C@H]1CS(=O)(=O)c2cc(F)c(C(=O)NCc3ccccc3)cc2N(Cc2ccc(Cl)cc2)C1=O` [Example 103, (3R)-3-amino-N-benzyl-5-[(4-chlorophenyl)methyl]-8-fluoro-1,1,4-trioxo-2,3,4,5-tetrahydro-1λ^6,5-benzothiazepine-7-carboxamide hydrochloride], the “Activity Class CD4+” value in assay [1] is listed as “A (IL-2 production at 3 μM compound concentration >10 ng/mL)”. In addition, the EC50 in assay [2] (setting [3]) and in assay [2] (setting [4]) was below 1580 nM throughout.

Turning to `Cl.N[C@H]1CSc2ccc(C(=O)NCc3ccc(F)cc3)cc2N(Cc2ccc(Cl)cc2)C1=O` [Example 26, (3R)-3-amino-5-[(4-chlorophenyl)methyl]-N-[(4-fluorophenyl)methyl]-4-oxo-2,3,4,5-tetrahydro-1,5-benzothiazepine-7-carboxamide hydrochloride], in assay [1], the “Activity Class CD4+” value is “B (IL-2 production at 3 μM compound concentration between 2-10 ng/mL)”. The EC50 is below 1580 nM in assay [2] (setting [3]) and 1580 to 5010 nM in assay [2] (setting [4]).
